Data taken from patent publication EP2832347B1, “Method for identifying patchouli odorant materials” (Takasago International Corporation, priority 2013, dated 2015).
Where “and” joins values, the source holds several entries; their conditions need not be identical. Equal values may be shown once. Read-outs that look alike come from different tables or passages of the source.

What was measured:
OR11A1 [1] = biological target: T1, OR11A1 (Homo sapiens, UniProt Q9GZK7); settings: Adipietro et al., PLoS Genet. 2012; cited from earlier work
T1 construct: expressed in transfected cells; host or cells: HEKOlf (HEK293 stably expressing human Galpha-olf and bovine CNGA2)
T1 sequence (Q9GZK7 1-315): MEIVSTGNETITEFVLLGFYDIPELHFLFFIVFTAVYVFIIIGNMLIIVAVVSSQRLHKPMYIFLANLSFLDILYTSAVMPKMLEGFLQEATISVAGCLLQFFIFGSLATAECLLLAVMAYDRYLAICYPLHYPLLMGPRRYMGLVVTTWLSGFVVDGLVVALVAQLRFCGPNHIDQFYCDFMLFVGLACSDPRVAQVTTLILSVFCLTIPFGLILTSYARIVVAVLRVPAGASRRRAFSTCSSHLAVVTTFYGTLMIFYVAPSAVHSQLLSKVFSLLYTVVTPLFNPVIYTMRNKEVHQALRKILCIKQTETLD

OR11A1 [2] = biological target: T1, OR11A1; test: CRE-luciferase reporter assay in HEKOlf cells transiently transfected with OR11A1; assay type: cell-based; settings: for EC50: Example 4, Table 5, 0.03-100 µM tested; for Potency and efficacy on OR11A1 (comparison between odorants): 0.1 to 100 µM (Figure 6)
Method: (§1) The experiments were performed using a HEK293 cell line (deposited at the ATCC under accession n° CRL-1573) stably expressing the Gαolf G-protein and the cyclic nucleotide gated ion channel A2 subunit (CNGA2) (herein called HEKOlf). As described by Shirokova et al., 2005, the human Gαolf cDNA was cloned into the mammalian expression vector pPuro and cDNA for the bovine cyclic nucleotide gated ion channel A2 (CNGA2) subunit was cloned into the mammalian expression vector pcDNA3. Both constructs were transfected using Lipofectamine2000 (Invitrogen) following the manufacturer's instructions. Cellular clones stably expressing Gαolf and CNGA2 were obtained by antibiotic selection with 0.5µg/ml Puromycin and 200µg/ml Geneticin.
All odorants were stored in the dark at 4°C upon delivery. They were prepared at 100mM stock solutions using DMSO as a solvent and stored at -20°C. On the day of the experiment the different stock solutions were directly diluted in the assay buffer (Tyrode's buffer) having the following composition: 5mM KCI, 130mM NaCl, 2mM CaCl2, 5mM NaHCO3, 1mM MgCl2, 20mM HEPES, pH7.4.
(§2) All transient transfections were performed with Lipofectamine 2000 (Invitrogen) according to the manufacturer's protocol. 10µl Lipofectamine 2000 were diluted in 500 µl DMEM and incubated for 5 minutes at room temperature. At the same time, 3µg of plasmid DNA were diluted in 500µl DMEM and added to the Lipofectamine 2000 mix to obtain a final volume of 1000µl. After incubation for a further 30 minutes at room temperature, the DNA-Lipofectamine complex was added to 1000µl of a cell suspension containing 1.600.000 cells/ml. Subsequently, 25µl per well of the complete mixture were seeded in black 384 well polystyrene assay plates. 25µl DMEM containing 20% FBS were added to each well 3 hours post-transfection.
(§3) The cDNAs for all olfactory receptors and an empty control vector were co-transfected with pGL4.29 (Promega). The pGL4.29 vector contains a cyclic adenosine monophosphate (cAMP) response element (CRE) that drives the transcription of the luciferase reporter gene luc2P (Photinus pyralis). luc2P is a synthetically-derived luciferase sequence with humanized codon optimization that is designed for high expression and reduced anomalous transcription.
In this assay, the interaction of an odorant with its cognate olfactory receptor leads to the activation of the human Gαolf G-protein. Gαolf is a stimulatory G-protein (Gαs) and activates adenylate cyclase, which converts adenosine triphosphate (ATP) into cAMP. Therefore, the activity of the transcribed luciferase can be used as an indication of olfactory receptor activation. 24 hours post-transfection the medium was removed from the transfected cells and 30 µl Tyrode's buffer containing the diluted odorants were added and incubated for 6 hours at 37°C. The cells were then transferred into an automated fluorometric imaging plate reader (FLIPR^TETRA, Molecular Devices). Subsequently, 25µl of a mixture composed of Triton X-100 and luciferin (1:1) were added. The addition of this mixture led to cell lyses and allowed interaction of the luciferase with its substrate luciferin resulting in a detectable emission of light.
The data obtained from different well replicates were analyzed with Excel, ScreenWorks, and SigmaPlot 10. The responses of each receptor to the odorants were divided by the mean responses of the receptor towards Tyrode's buffer (fold of change FOC1). The specificity of FOC1 was checked by comparing with a second FOC (FOC2) obtained by stimulating a control sample, consisting in an empty expression vector, with the same odorants and Tyrode's buffer. The mean and standard deviation of the resulting fold of change values were calculated and plotted in vertical bar charts or concentration-response curves fitted by the SigmaPlot 10 software.

OR11L1 = biological target: T2, OR11L1 (Homo sapiens, UniProt Q8NGX0); test: CRE-luciferase reporter assay in HEKOlf cells transiently transfected with OR11L1; assay type: cell-based; settings: Example 3; 10/30/100 µM
T2 construct: expressed in transfected cells; host or cells: HEKOlf (HEK293 stably expressing human Galpha-olf and bovine CNGA2)
T2 sequence (Q8NGX0 1-322): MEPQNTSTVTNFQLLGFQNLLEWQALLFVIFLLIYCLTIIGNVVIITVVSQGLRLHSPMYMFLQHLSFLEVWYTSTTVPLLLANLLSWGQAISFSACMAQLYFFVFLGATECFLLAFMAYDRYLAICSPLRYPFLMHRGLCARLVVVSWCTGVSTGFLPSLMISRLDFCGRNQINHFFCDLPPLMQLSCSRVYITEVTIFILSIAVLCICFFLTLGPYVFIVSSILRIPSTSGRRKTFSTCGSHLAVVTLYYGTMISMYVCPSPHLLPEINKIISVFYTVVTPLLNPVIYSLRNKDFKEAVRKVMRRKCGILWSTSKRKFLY
Method: as §1
All odorants were stored in the dark at 4°C upon delivery. […]
(§4) In this assay, the interaction of an odorant with its cognate olfactory receptor leads to the activation of the human Gαolf G-protein. […] The cells were then transferred into an automated fluorometric imaging plate reader (FLIPR^TETRA, Molecular Devices). […]
(§5) The data obtained from different well replicates were analyzed with Excel, ScreenWorks, and SigmaPlot 10. […] The mean and standard deviation of the resulting fold of change values were calculated and plotted in vertical bar charts or concentration-response curves fitted by the SigmaPlot 10 software. […]

[3] = test system: seven other OR11A1-related olfactory receptors; test: CRE-luciferase reporter assay on OR11A1 related receptors; assay type: cell-based, human; settings: 10/30/100 µM
Method: as §1, §2, §3
In this assay, the interaction of an odorant with its cognate olfactory receptor leads to the activation of the human Gαolf G-protein. Gαolf is a stimulatory G-protein (Gαs) and activates adenylate cyclase, which converts adenosine triphosphate (ATP) into cAMP. Therefore, the activity of the transcribed luciferase can be used as an indication of olfactory receptor activation. […] The cells were then transferred into an automated fluorometric imaging plate reader (FLIPR^TETRA, Molecular Devices). […]
as §5

[4] = Long-lasting analysis on scent strip (GC-MS with internal standard); assay type: physicochemical; settings: for POG (GC-MS signal), sample 1-3 / Ratio POG/IS, sample 1-3: individual scent strips, listed as POG
Method: In one embodiment, the long-lasting analysis is carried out as follows: 50 µl of a 1 % solution of the identified candidate to be tested in alcohol, preferably ethanol, are applied on a scent strip, preferably a cellulosic scent strip, to be dosed. The strip is allowed to dry under ambient laboratory conditions, with normal room air movement, in particular no fan, heating or any mean or device to accelerate evaporation. After different times, each strip or at least the part of the scent strip including the area where the solution of the identified candidate to be tested was applied is extracted using 3 ml of alcohol, preferably ethanol, containing an internal standard, such as methyl decanoate. The extracts are then analyzed by gas chromatography and the result is normalized for the principal molecular ion of the identified candidate using the value for the internal standard.
50 µl of a 1 % solution of patchouli alcohol in ethanol was added by pipette to the tip to a series of different scent strips (SARL H. GRANGER-VEYRON, Privas, France). The strips were allowed to dry under ambient laboratory conditions.
After different times (t0, t0+1hour, t0+2hours, t0+4hours, t0+8hours) the tip of a strip where the 50 µl of the solution of the tested material had been applied was cut and put in a 30 ml bottle and extracted using 3 ml of ethanol, containing 50 µl of methyl decanoate as internal standard (10000 ppm solution in cyclohexane), added to each bottle. Care was taken to ensure the entire area around the point of application was included in the area that was cut and extracted. The content of the bottles was mixed for 30 min on a roller bed, and 2 ml vials were then filled with each sample.
Samples were triplicated, i.e. 3 scent strip tips were analysed for each time point.
In a first series of experiments, samples taken at t0, t0+1hour and t0+2hours were analyzed by GC-MS on a […] gas chromatography column (column BC-WAX (50m * 0.25mm * 0.15µm) which is a GC Sciences column supplied by Interchim, Montluçon, France).
In a second series of experiments, samples taken at t0, t0+4hours and t0+8hours were analyzed by GC-MS on a non-polar gas chromatography column (HP-5MS UI (30m * 0.25mm * 0.25µm) which is an Agilent column supplied by Chromoptic, Courtaboeuf, France).
In Tables 6-11, PA stands for patchouli alcohol and IS stands for the internal standard, i.e. methyl decanoate. When plotting the residual concentration of patchouli on the scent strip as a function of time, the mean ratio at t0 was normalized to 100 and then t0+1h, t0+2h, t0+4h and t0+8h were calculated; t0 being defined as 2 minutes after dosing the 50 µl of the solution of the tested material, which was applied towards the tip of the scent strip.
A "long-lasting" analysis of pogostone was performed as described in Example 5 with samples taken at t0, t0+1hour and t0+2hours.
In Tables 12-14 herebelow, POG stands for pogostone and IS stands for the internal standard, i.e. methyl decanoate. The mean ratio at t0 was normalized as described in Example 5.

OR7D4 = biological target: T3, OR7D4 (Homo sapiens, UniProt Q8NG98); test: CRE-luciferase reporter assay, positive control receptor OR7D4; assay type: cell-based; settings: 10 µM
T3 construct: expressed in transfected cells; host or cells: HEKOlf (HEK293 stably expressing human Galpha-olf and bovine CNGA2)
T3 sequence (Q8NG98 1-312): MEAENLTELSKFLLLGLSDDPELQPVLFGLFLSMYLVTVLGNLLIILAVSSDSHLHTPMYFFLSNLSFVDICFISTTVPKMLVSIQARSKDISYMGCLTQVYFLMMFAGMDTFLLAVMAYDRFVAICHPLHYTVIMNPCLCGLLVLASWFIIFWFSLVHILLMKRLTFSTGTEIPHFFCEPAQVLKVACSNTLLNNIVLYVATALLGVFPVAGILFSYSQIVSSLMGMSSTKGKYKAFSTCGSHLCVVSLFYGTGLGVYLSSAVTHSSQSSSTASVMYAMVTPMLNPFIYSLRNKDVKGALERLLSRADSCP
Method: as §1
All transient transfections were performed with Lipofectamine 2000 (Invitrogen) according to the manufacturer's protocol. […]
as §4, §5

[5] = test system: 65 human olfactory receptors; test: Screening against the set of 65 human olfactory receptors (CRE-luciferase); assay type: cell-based; settings: 10 µM; including negative control receptor hTAS2R16
Method: as §1, with “Geneticin. […]” for “Geneticin.”
as §4, §5

[6] = Example 4, 3, 10 and 30 µM (Figure 5)

CCC1(O)C2(C)CCC(C2)C1(C)C (stereo not shown) [2-ethylfenchol]
activation of OR11A1 (OR11A1 [1]): activation of OR11A1

CC1(C)C2CCC3(C)C4C(CCC13O)C24 (stereo not shown) [Patcho 315, 6a,7,7-trimethyldecahydro-1,4-methanocyclopropa[de]naphtalen-1-ol]
activation of OR11A1 (OR11A1 [2]; Example 3, 10/30/100 µM): strongly activated
EC50 (OR11A1 [2]): 2.9 ± 0.9 µM
Potency and efficacy on OR11A1 (comparison between odorants) (OR11A1 [2]; Example 4): highest
activation of OR11A1 (OR11A1 [2]; [6]): strongly activated
response in cells transfected with OR11L1 (OR11L1): unable to elicit a detectable response
fold of change ([3]; Example 3, figure 4): around 1
response of seven other OR11A1-related olfactory receptors ([3]; Example 3): none of the seven other OR11A1-related olfactory receptors responded

Cc1cc(O)c(C(=O)CCC(C)C)c(=O)o1 [Pogostone, pogostone]
EC50 (OR11A1 [2]): 14.8 ± 3.3 µM
Potency and efficacy on OR11A1 (comparison between odorants) (OR11A1 [2]; Example 4): comparable
activation of OR11A1 (OR11A1 [2]; [6]): able to elicit activation
retained initial concentration ([4]; after 1 hour on scent strip): at least 10%
POG (GC-MS signal), mean value ([4]; t0): 1.11E+06
Ratio POG/IS, mean value ([4]; t0): 2.61E-01
POG (GC-MS signal), mean value ([4]; t0+1h): 9.55E+05
Ratio POG/IS, mean value ([4]; t0+1h): 2.08E-01
POG (GC-MS signal), sample 1-3 ([4]; t0+1h): 1.05E+06 and 9.11E+05 and 9.09E+05
Ratio POG/IS, sample 1-3 ([4]; t0+1h): 2.22E-01 and 1.98E-01 and 2.03E-01
POG (GC-MS signal), mean value ([4]; t0+2h): 8.34E+05
Ratio POG/IS, mean value ([4]; t0+2h): 1.82E-01
POG (GC-MS signal), sample 1-3 ([4]; t0+2h): 8.11E+05 and 8.75E+05 and 8.15E+05
Ratio POG/IS, sample 1-3 ([4]; t0+2h): 1.75E-01 and 1.87E-01 and 1.85E-01
POG (GC-MS signal), sample 1-3 ([4]; t0): 1.17E+06 and 1.06E+06 and 1.09E+06
Ratio POG/IS, sample 1-3 ([4]; t0): 2.92E-01 and 2.45E-01 and 2.48E-01

CC1(C)CCC[C@]2(O)C(C)(C)[C@H]3CC[C@@]12C3 [Terranol, terranol]
activation of OR11A1 (OR11A1 [2]; Example 4, up to 100µM): did not activate

CC1CCC2C(C)(C)C3CC12CC1OC13C (stereo not shown) [andrane]
activation of OR11A1 (OR11A1 [2]; Example 4, up to 100µM): did not activate

C[C@]12CCC(=O)C[C@@H]1CC[C@@H]1[C@@H]2CC[C@]2(C)C=CC[C@@H]12 [androstenone]
activation of OR7D4 (OR7D4): robustly activated
response of the 65 olfactory receptors tested [5]: did not respond

norpatchouli alcohol
EC50 (OR11A1 [2]): 10.7 ± 2.6 µM
Potency and efficacy on OR11A1 (comparison between odorants) (OR11A1 [2]; Example 4): comparable
activation of OR11A1 (OR11A1 [2]; [6]): able to elicit activation
